On the set-up of series [1]: method as in Reference column of Table I (PMIDs, package inserts). To be noted: maximum plasma concentration, human; ref Table I (PMIDs, package inserts); cited from earlier work.
The target in another series is human TPK1 (Homo sapiens, UniProt Q9H3S4). In words: TPK1 enzyme assay (AMP-Glo luminescence), substrate test. It counts as biochemical. The settings on record: 1 mM compound, 15 μg human TPK, 500 μM ATP, 30 min, 37 °C. Here is the method:
Methods detailing thiamine pyrophosphokinase 1 (TPK1) enzyme assay development and execution are listed in Supplemental Figure 2 legend.
To determine if the top compounds in the SLC19A2 inhibitor screen (i.e., erythromycin, omeprazole) were substrates of human TPK1, we measured the level of adenosine monophosphate (AMP) generated in a TPK1 enzyme reaction using AMP-Glo™ Assay (Promega).
Luminescence was measured as a proxy for AMP production in human TPK1 reactions exposed to the following compounds: omeprazole 1mM (OME), erythromycin 1mM (ERY), thiamine 1mM (positive control or PC), and no substrate (negative control or NC). Reactions were comprised of 0.5 mL enzyme reaction mixture containing 100 μM MgCl2, 500 μM ATP, pH 7.4, 15 μg of human TPK and 1 mM of tested substrate incubated for 30 min at 37 °C. A negative control reaction was also prepared without added enzyme. Luminescence was measured with a GloMax luminometer (Promega). […] For omeprazole, the signal was not statistically different from the negative control (student’s t-test, p-value = 0.72). Figure representative of 3 independent experiments.

The target in series [2] is T1, SLC19A2 (Homo sapiens, UniProt O60779).
T1 sequence (O60779 1-497): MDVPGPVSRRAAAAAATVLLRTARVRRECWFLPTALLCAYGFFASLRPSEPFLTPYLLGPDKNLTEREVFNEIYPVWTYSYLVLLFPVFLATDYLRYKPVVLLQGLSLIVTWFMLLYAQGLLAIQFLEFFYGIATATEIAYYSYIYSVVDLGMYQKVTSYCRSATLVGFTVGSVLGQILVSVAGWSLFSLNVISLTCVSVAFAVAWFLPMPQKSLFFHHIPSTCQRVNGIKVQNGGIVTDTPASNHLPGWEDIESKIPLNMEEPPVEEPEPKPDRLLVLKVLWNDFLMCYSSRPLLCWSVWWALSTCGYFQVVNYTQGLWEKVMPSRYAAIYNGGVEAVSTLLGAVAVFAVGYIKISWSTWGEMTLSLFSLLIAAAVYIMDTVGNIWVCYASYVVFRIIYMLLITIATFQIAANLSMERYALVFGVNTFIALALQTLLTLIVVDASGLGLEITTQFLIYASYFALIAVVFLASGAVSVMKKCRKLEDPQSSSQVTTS
Briefly: Predicted risk of SLC19A2-mediated clinical drug-drug interaction (FDA criteria). Further details: host or cells: HEK293, stably overexpressing SLC19A2 and transiently transfected with a further 500 ng wild-type plasmid. The settings on record: (fu*Cmax)/IC50 > 0.1. The source says:
Clinical pharmacokinetic data from human studies ([13]–[18]) and drug monograph databases (e.g., Micromedex, FDA) were used to obtain Cmax (maximum plasma concentration) and fu (fraction of drug unbound in the plasma).

In series [3] the target is T1, SLC19A2. In words: SLC19A2 inhibitor screen: [3H]-thiamine uptake in SLC19A2-overexpressing HEK293 cells. It counts as cell-based. The arrangement: host or cells: HEK293, stably overexpressing SLC19A2 and transiently transfected with a further 500 ng wild-type plasmid. To be noted: HEK293, 10 min; for remaining activity at 1000 µM: drug 1 mM, [3H]-thiamine 25 nM, 10 min, HEK293 cells expressing SLC19A2, relative to uptake without inhibitor, read-out: Average % SLC19A2 thiamine uptake; for inhibition at 1000 µM: at 1 mM, read-out: reduction in thiamine transport (designated SLC19A2 inhibitor). Here is the method:
(§1) Plasmids encoding wild-type SLC19A2 and three TRMA-associated variants were generated by Genscript Inc. (Piscataway, USA). Methods for generation of stably overexpressing SLC19A2 cell lines and uptake studies have been previously described ([11], [12]). Inhibition and kinetic studies were performed in SLC19A2-overexpressing stable HEK293 cells transiently transfected with an additional 500 ng of SLC19A2 wild-type plasmid.
Prescription drugs associated with MA ([2]) in addition to others belonging to listed drug classes (e.g., proton-pump inhibitors; 63 compounds total) were screened in triplicate at 1 mM to evaluate inhibitory activity against SLC19A2. […] Each plate contained control wells exposed for 10 min (within linear range, Supplemental Figure 1) to [^3H]-thiamine (positive control), [^3H]-thiamine plus 1 mM of amprolium (negative control), and [^3H]-thiamine plus 1 mM of screened drug (3 replicates per drug). Methods have been previously described ([11]). SLC19A2 inhibitors were defined as compounds that decreased SLC19A2-mediated thiamine uptake by 50% or more at 1 mM. For compounds that met this definition, inhibition assays were conducted and IC50 values were calculated by nonlinear fitting using GraphPad Prism 7 (La Jolla, CA) ([11]).
Fig. 3 Common mechanisms of drug-induced megaloblastic anemia and SLC19A2 inhibitor drug screen workflow. A list of drugs associated with inducing megaloblastic anemia through various mechanisms was compiled (a). Each drug was dissolved to a final concentration of 1 mM in buffer containing radiolabeled [^3H] thiamine and exposed to HEK293 cells expressing SLC19A2 wild-type transporter for 10 min.

Series [4] concerns the target T1, SLC19A2. Briefly: IC50 assays for inhibition of SLC19A2-mediated thiamine uptake. It is filed as cell-based. The arrangement: host or cells: HEK293, stably overexpressing SLC19A2 and transiently transfected with a further 500 ng wild-type plasmid. To be noted: inhibitor 0 to 1 mM, HEK293. Here is the method:
as §1
Prescription drugs associated with MA ([2]) in addition to others belonging to listed drug classes (e.g., proton-pump inhibitors; 63 compounds total) were screened in triplicate at 1 mM to evaluate inhibitory activity against SLC19A2. The screen was performed using [^3H]-thiamine (25 nM). Each plate contained control wells exposed for 10 min (within linear range, Supplemental Figure 1) to [^3H]-thiamine (positive control), [^3H]-thiamine plus 1 mM of amprolium (negative control), and [^3H]-thiamine plus 1 mM of screened drug (3 replicates per drug). Methods have been previously described ([11]). SLC19A2 inhibitors were defined as compounds that decreased SLC19A2-mediated thiamine uptake by 50% or more at 1 mM. For compounds that met this definition, inhibition assays were conducted and IC50 values were calculated by nonlinear fitting using GraphPad Prism 7 (La Jolla, CA) ([11]).
Fig. 4 Drug screen and potency studies against SLC19A2-mediated thiamine uptake. In the screen, SLC19A2 inhibitors were defined as compounds that inhibit at least 50% of thiamine uptake compared to the positive control. The positive control was thiamine uptake in the absence of inhibitor. Out of the 63 drugs screened, ten reached that threshold. Of the ten drugs, three (fedratinib, amprolium, and trimethoprim) have IC50 values published in literature (a). […] Figures representative of 3 independent experiments except for pantoprazole

The conditions of series [5]: fraction unbound in plasma, human; ref Table I (PMIDs, package inserts); cited from earlier work.
In another series the target is T2, wild-type SLC19A2 (Homo sapiens, UniProt O60779).
T2 construct: host or cells: HEK293, transiently transfected
T2 sequence (O60779 1-497): T1 sequence (O60779 1-497)
Briefly: Thiamine transport by wild-type SLC19A2 in transiently transfected HEK293 cells with inhibitor. It is filed as cell-based. The settings on record: 200 μM inhibitor. Here is the method: as §1
Fig. 2 Function and expression of TRMA-associated SLC19A2 variants, and the effects of two prescription drugs on SLC19A2-mediated thiamine uptake. […] Figures representative of 3 separate experiments (a). Membrane localization of GFP-tagged SLC19A2 variants. To determine TRMA variant membrane expression, constructs encoding SLC19A2 wild-type and TRMA variants were GFP-tagged and transfected in HEK293 cells. Nuclei were stained with Hoechst 33342 dye (blue) and cells were visualized with confocal microscopy (b)

The target of series [6] is T1, SLC19A2. To be noted: IC50 published in literature, ref PMID: 27803021; cited from earlier work.

This is an account of results in publication PMC7921063, “The Effects of Genetic Mutations and Drugs on the Activity of the Thiamine Transporter, SLC19A2” (The AAPS Journal, 2021).

Read-outs that look alike come from different tables or passages of the source.

Chain of human TPK1 (Q9H3S4 whole entry): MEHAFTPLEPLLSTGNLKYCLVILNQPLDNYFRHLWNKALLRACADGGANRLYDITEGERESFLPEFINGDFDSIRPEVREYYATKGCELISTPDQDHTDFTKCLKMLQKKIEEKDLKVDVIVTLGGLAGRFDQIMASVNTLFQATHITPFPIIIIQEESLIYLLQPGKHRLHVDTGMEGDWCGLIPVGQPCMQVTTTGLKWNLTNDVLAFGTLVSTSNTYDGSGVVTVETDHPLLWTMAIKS

As to `CC[C@H]1OC(=O)[C@H](C)[C@@H](O[C@H]2C[C@@](C)(OC)[C@@H](O)[C@H](C)O2)[C@H](C)[C@@H](O[C@@H]2O[C@H](C)C[C@H](N(C)C)[C@H]2O)[C@](C)(O)C[C@@H](C)C(=O)[C@H](C)[C@@H](O)[C@]1(C)O` [Erythromycin], in series [1], the Cmax (usually the peak of the concentration-time curve) was 2300 to 9600 nM. Also, the “Luminescent signal (AMP production) in TPK1 reaction versus negative control” value on human TPK1 is recorded as “significantly higher than the negative control signal”. Further, the “FDA criteria for clinically relevant transporter inhibition, unbound Cmax/IC50” value at SLC19A2 [2] is recorded as “met the FDA’s criteria for clinically relevant transporter inhibition”. Further, at SLC19A2 [3], the remaining activity at 1000 µM is 29.8% and the inhibition at 1000 µM is not below 50%. Also, 20 µM corresponded to half-maximal inhibition at SLC19A2 [4] (IC50). Also, the fu in series [5] is recorded as 0.1-0.3.
With `COc1ccc2[nH]c([S+]([O-])Cc3ncc(C)c(OC)c3C)nc2c1` (stereo not drawn) [Omeprazole], in series [1], the Cmax is 1000 to 10000 nM. On human TPK1, the “Luminescent signal (AMP production) in TPK1 reaction versus negative control” value is recorded as “statistically similar to the negative control”. At SLC19A2 [3], the remaining activity at 1000 µM was 26.6% and the inhibition at 1000 µM is not below 50%. The midpoint of inhibition against SLC19A2 [4], the IC50, lay at 207 µM. The fu in series [5] is on record as 0.05 (label).
On to `COc1cc(Cc2cnc(N)nc2N)cc(OC)c1OC` [Trimethoprim], for which the “wild-type SLC19A2 thiamine transport activity” value on wild-type SLC19A2 is reported as “abolished”. Besides, the Cmax in series [1] is 3440 nM. Further, on SLC19A2 [3], the remaining activity at 1000 µM worked out at 31.7% and the inhibition at 1000 µM is not below 50%. The IC50 (as a rule, the concentration needed to halve the response being measured) on SLC19A2 [6] is 6.84 µM.
As for `COc1ccnc(C[S+]([O-])c2nc3ccc(OC(F)F)cc3[nH]2)c1OC` (stereo not drawn) [Pantoprazole], the Cmax in series [1] was 6500 nM. At SLC19A2 [3], the remaining activity at 1000 µM was found to be 46.5% and the inhibition at 1000 µM was not below 50%. Also, the half-maximal inhibitory concentration (IC50) against SLC19A2 [4] was 429 µM. In addition, the fu in series [5] is 0.02 (label).
As for `CCN(CC)CCCC(C)Nc1ccnc2cc(Cl)ccc12` (stereo not drawn) [Chloroquine], the highest concentration (Cmax) in series [1] is 3.4 nM. Moreover, the IC50 against SLC19A2 [4] is 301 µM. For the same compound, in series [5], the fu is given as 0.36-0.39.
`N=C(N)NC(=O)c1nc(Cl)c(N)nc1N` [Amiloride]: in series [1], the Cmax is 40 nM. Moreover, at SLC19A2 [3], the remaining activity at 1000 µM came out at 44.8% and the inhibition at 1000 µM was not below 50%. Besides, the IC50 at SLC19A2 [4] worked out at 69 µM. The fu in series [5] is given as 0.77.
Take `CCCc1ncc(C[n+]2ccccc2C)c(N)n1` [Amprolium]: the “wild-type SLC19A2 thiamine transport activity” value at wild-type SLC19A2 is listed as “abolished”. At SLC19A2 [3], the remaining activity at 1000 µM was 29.1% and the inhibition at 1000 µM is not below 50%.
Consider `COc1c(C)c2c(c(O)c1C/C=C(\C)CCC(=O)OCCN1CCOCC1)C(=O)OC2` [Mycophenolate mofetil], for which the Cmax in series [1] is less than 900 nM. On SLC19A2 [3], the remaining activity at 1000 µM is 32.8% and the inhibition at 1000 µM is not below 50%. Also, the IC50 against SLC19A2 [4] was found to be 145 µM. In addition, the fu in series [5] is reported as 0.03 (label).
